Like-named read-outs stand apart in the source and are kept apart here.
Assays:
Assay type in all cases: cell-based
SLC7A3 = molecular target: T1, SLC7A3 (Homo sapiens, UniProt Q8WY07); assay: RESOLUTE assay on SLC7A3
T1 construct: expressed in transfected cells; host or cells: Jump In T-REx HEK293 (general cell-line paragraph)
Description: (§1) FLIPR Membrane Potential Blue Dye was used to detect the compound activities for those membrane transporters that are electrogenic or whose activity is associated with changes in membrane potential, as previously described ([Jensen and BräunerOsborne, 2004]). In brief, cells are seeded at cell line-specific density in black clear-bottom poly-D-Lysine-coated 384-well plates (Greiner Bio-One) in DMEM high-glucose medium with 10% FBS, 1% P/S, and 2 mM UltraGlutamine I (25 µL/well). Furthermore, 24 h after seeding, the culture medium is removed, and the cells are loaded with 20 µL/well of 0.5 X FMP Blue Dye in assay buffer (modified Tyrode’s buffer, 130 mM NaCl, 5 mM KCl, 1 mM MgCl2, 2 mM CaCl2, 5 mM NaHCO3, and 20 mM HEPES pH 7.4). The plates are subsequently incubated for at least 30 min at room temperature in the dark. Then, 10 µL/well of test compounds and controls is added at defined concentrations (0.5% DMSO final conc.) in the FLIPR TETRA instrument (Molecular Devices), and emitted fluorescence is recorded using a λexc 510–545-nm/λem 565–625-nm filter. The dose–response curves for the 19 compounds were prepared starting from 3 µM (final top concentration), the half-log serial dilution factor. For data analysis, Genedata Screener 19.0 software was used.
(§2) The robust Z prime factor (RZ’ factor) was calculated with the following formula: RZ^′=1−3∗RSDMAX+RSDMIN/AbsMAX − MIN, where the RZ’ factor is based on the same formula as the Z′ factor ([Zhang et al., 1999]) but standard deviations and means are replaced by the robust standard deviations and medians, respectively. Curve fitting profiles were performed on each dose–response curve with the analyzer module of Genedata Screener 19.0 on % activity.

SLC13A3 = molecular target: T2, SLC13A3 (Homo sapiens, UniProt Q8WWT9); assay: RESOLUTE assay on SLC13A3
T2 construct: expressed in transfected cells; host or cells: Jump In T-REx HEK293 (general cell-line paragraph)
T2 sequence (Q8WWT9 1-602): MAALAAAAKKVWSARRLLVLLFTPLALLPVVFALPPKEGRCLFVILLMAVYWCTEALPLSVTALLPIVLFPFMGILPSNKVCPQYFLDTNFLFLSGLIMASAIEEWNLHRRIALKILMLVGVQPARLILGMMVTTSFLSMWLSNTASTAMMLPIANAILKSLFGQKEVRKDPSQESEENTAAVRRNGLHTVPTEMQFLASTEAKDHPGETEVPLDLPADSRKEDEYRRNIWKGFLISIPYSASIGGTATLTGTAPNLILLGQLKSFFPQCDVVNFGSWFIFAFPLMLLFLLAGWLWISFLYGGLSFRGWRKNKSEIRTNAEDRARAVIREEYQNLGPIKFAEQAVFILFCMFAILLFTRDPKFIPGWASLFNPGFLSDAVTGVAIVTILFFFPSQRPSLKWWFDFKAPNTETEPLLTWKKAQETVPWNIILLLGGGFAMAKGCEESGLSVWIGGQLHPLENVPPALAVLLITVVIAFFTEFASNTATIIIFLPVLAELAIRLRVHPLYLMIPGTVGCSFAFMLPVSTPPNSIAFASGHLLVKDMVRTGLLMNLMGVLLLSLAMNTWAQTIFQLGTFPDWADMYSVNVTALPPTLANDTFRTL
Description: as §1, §2

SLC6A12 = molecular target: T3, SLC6A12 (Homo sapiens, UniProt P48065); assay: Membrane potential dye-based assay, HEK293–JumpIn–SLC6A12 cells
T3 construct: expressed in transfected cells; host or cells: Jump In T-REx HEK293
T3 sequence (P48065 1-614): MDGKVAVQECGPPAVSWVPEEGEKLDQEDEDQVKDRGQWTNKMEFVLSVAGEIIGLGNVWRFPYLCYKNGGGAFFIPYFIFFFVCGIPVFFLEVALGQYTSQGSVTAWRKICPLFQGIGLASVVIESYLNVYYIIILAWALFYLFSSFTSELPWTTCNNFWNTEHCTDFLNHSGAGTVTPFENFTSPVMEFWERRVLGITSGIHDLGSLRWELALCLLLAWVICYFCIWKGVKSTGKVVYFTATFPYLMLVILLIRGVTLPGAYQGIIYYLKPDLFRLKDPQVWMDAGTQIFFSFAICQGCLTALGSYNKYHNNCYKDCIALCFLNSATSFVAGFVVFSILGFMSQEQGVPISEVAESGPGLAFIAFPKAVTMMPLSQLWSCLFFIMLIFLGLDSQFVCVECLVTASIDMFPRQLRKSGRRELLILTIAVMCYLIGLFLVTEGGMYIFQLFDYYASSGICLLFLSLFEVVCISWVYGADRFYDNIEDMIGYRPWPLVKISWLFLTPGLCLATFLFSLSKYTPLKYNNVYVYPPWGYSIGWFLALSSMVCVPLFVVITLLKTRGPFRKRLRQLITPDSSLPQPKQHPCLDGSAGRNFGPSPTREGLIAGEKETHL
Description: as §1, §2

SLC23A1 = molecular target: T4, SLC23A1 (Homo sapiens, UniProt Q9UHI7); assay: RESOLUTE assay on SLC23A1
T4 construct: expressed in transfected cells; host or cells: Jump In T-REx HEK293 (general cell-line paragraph)
T4 sequence (Q9UHI7 whole entry): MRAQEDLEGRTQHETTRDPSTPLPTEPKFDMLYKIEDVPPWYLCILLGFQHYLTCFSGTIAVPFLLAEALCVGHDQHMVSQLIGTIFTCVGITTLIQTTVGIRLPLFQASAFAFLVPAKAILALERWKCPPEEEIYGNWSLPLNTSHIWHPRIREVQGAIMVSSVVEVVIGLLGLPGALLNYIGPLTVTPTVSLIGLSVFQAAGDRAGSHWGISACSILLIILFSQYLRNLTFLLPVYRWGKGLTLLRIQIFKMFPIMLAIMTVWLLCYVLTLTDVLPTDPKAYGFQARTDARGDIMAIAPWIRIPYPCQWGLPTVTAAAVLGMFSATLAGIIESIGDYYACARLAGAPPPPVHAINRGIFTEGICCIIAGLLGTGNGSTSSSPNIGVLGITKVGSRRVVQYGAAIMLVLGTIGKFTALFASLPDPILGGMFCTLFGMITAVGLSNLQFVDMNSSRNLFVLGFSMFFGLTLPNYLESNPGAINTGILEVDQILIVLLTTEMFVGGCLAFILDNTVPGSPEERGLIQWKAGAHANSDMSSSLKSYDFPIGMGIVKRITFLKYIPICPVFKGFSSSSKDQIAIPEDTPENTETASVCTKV
Description: as §1, §2

SLC6A8 = molecular target: T5, SLC6A8 (Homo sapiens, UniProt P48029); assay: RESOLUTE assay on SLC6A8
T5 construct: expressed in transfected cells; host or cells: Jump In T-REx HEK293 (general cell-line paragraph)
T5 sequence (P48029 1-635): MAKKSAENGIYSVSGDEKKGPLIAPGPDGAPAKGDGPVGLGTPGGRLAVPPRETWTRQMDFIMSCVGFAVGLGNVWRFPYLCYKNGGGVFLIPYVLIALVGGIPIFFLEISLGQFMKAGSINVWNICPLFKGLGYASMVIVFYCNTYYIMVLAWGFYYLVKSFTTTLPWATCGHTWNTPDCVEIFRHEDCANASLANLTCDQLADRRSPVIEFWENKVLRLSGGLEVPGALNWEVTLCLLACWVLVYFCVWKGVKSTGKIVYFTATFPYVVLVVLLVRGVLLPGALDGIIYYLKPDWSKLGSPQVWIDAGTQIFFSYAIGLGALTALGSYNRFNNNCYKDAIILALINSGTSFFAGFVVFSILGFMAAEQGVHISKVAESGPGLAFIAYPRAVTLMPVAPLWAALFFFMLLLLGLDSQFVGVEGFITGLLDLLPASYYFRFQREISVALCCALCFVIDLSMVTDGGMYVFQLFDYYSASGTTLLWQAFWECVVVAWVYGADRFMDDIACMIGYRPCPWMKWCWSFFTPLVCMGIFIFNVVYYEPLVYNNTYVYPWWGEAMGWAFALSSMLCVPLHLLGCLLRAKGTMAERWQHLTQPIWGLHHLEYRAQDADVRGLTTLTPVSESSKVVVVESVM
Description: as §1, §2

SLC6A2 = SLC6A2 (Homo sapiens, UniProt P23975); assay: Impedance-based TRACT assay, HEK293–JumpIn–NET (SLC6A2) cells; design: expressed in transfected cells; host or cells: Jump In T-REx HEK293
Chain of SLC6A2 (P23975 whole entry): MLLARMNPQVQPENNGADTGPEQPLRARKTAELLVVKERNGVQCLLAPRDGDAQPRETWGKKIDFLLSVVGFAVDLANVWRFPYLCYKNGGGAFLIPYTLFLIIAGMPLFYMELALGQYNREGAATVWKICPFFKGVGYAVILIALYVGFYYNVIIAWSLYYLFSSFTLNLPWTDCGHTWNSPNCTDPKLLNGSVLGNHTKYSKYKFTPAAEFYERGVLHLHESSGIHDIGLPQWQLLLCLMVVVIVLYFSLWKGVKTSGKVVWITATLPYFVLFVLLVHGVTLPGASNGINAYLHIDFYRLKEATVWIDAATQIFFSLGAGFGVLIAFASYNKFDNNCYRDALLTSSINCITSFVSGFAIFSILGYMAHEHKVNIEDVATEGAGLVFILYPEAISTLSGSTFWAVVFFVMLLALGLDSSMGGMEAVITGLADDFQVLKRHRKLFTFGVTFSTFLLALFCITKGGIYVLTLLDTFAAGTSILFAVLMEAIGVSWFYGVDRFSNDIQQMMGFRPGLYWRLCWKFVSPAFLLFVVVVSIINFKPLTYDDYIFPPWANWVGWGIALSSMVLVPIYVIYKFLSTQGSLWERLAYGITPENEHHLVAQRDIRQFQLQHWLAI

[1] = target SLC7A3, Flipr Membrane Potential-Blue-Dye, read-out: pIC50 (act) (converted)
[2] = Flipr Membrane Potential-Blue-Dye, read-out: pIC50 (act), SLC13A3 (converted)
[3] = target SLC6A12, Flipr Membrane Potential-Blue-Dye, read-out: pIC50 (act) (converted)
[4] = Flipr Membrane Potential-Blue-Dye, read-out: pIC50 (act), SLC23A1 (converted)
[5] = target SLC6A8, Flipr Membrane Potential-Blue-Dye, read-out: pIC50 (act) (converted)
[6] = target SLC6A2, assay TRACT, read-out: pIC50 (act) (converted)
[7] = Flipr Membrane Potential-Blue-Dye, read-out: pIC50 (act), SLC7A3 (converted)

T1 sequence (Q8WY07 whole entry): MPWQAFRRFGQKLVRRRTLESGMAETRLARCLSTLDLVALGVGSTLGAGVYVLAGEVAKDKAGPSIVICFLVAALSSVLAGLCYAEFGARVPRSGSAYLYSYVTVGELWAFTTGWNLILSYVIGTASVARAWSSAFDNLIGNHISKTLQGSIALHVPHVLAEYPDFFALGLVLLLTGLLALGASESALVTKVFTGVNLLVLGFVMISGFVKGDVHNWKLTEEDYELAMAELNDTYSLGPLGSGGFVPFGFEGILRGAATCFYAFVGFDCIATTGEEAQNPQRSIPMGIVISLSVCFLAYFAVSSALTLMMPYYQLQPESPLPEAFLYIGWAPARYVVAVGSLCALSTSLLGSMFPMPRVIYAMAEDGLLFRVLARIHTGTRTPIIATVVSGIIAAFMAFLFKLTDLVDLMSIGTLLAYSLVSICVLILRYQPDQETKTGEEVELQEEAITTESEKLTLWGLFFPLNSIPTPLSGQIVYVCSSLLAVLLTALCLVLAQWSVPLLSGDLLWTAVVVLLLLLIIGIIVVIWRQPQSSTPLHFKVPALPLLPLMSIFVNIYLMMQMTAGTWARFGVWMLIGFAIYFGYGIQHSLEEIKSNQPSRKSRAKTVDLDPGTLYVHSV

IC50 (SLC6A2; approximate value stated in text, read-out: IC50, SLC6A2) [µM]	IC50 (SLC6A2; dox-induced HEK293–JumpIn–SLC6A2 cells, 1 µM norepinephrine, read-out: pIC50, SLC6A2, TRACT (converted)) [µM]	Compound	IC50 (SLC7A3; [1]) [µM]	IC50 (SLC13A3; [2]) [µM]	IC50 (SLC6A12; [3]) [µM]	IC50 (SLC23A1; [4]) [µM]	IC50 (SLC6A8; [5]) [µM]	IC50 (SLC6A2; [6]) [µM]	inhibition at 3 µM (SLC6A12; read-out: Inhibition (3 µM) [%], SLC6A12, MP dye) [%]	IC50 (SLC7A3) [µM]	IC50 (SLC13A3) [µM]	IC50 (SLC6A12) [µM]	IC50 (SLC6A2) [µM]	IC50 (SLC23A1) [µM]	IC50 (SLC6A8) [µM]	IC50 (SLC7A3; [7]) [µM]
–	–	Cc1c(NC(=O)c2cc(C(N)=O)nc3cc(F)ccc23)c(C(F)(F)F)nn1Cc1ccc(C#N)cc1 [BAY-876]	> 3.16	> 3.16	> 3.16	> 3.16	> 3.16	–	–	–	–	–	–	–	–	–
–	–	CN1C2CCC1CC(OC(c1ccccc1)c1ccccc1)C2 (centres unmarked) [Benzotropine]	> 3.16	> 3.16	> 3.16	> 3.16	> 3.16	–	–	–	–	–	–	–	–	–
–	–	CCNC(=O)/C=C/c1cccc(Br)c1 [Cinromide]	> 3.16	> 3.16	> 3.16	> 3.16	> 3.16	> 10	–	–	–	–	–	–	–	–
–	–	O=S(=O)(O)c1cc(N=C=S)ccc1/C=C/c1ccc(N=C=S)cc1S(=O)(=O)O [DIDS]	> 3.16	> 3.16	> 3.16	> 3.16	> 3.16	> 10	–	–	–	–	–	–	–	–
–	–	COCCOc1cc(CC2CCN(CCc3ccc4c(c3)C(=O)CCO4)CC2)ccc1Br [DSP-1053]	> 3.16	> 3.16	> 3.16	> 3.16	> 3.16	> 10	36	–	–	–	–	–	–	–
–	–	CNCCCN1c2ccccc2CCc2ccccc21 [Desipramine]	> 3.16	> 3.16	> 3.16	> 3.16	> 3.16	–	–	–	–	–	–	–	–	–
–	–	CC(C)[C@H]1CN[C@H](C(=O)O)[C@H]1CC(=O)O [Dihydrokainate]	> 3.16	> 3.16	> 3.16	> 3.16	> 3.16	> 10	–	–	–	–	–	–	–	–
~1	–	N#Cc1ccc(Nc2cnccc2SCc2ccccc2C(=O)O)c2ccccc12 [KPH2f]	> 3.16	> 3.16	> 3.16	> 3.16	> 3.16	–	–	–	–	–	–	–	–	–
–	–	C=C(C)[C@H]1CN[C@H](C(=O)O)[C@H]1CC(=O)O [Kainic acid]	–	–	–	–	–	–	–	> 3.16	> 3.16	> 3.16	> 10	> 3.16	> 3.16	–
–	–	CCOC(=O)N1CCC(=C2c3ccc(Cl)cc3CCc3cccnc32)CC1 [Loratadine]	> 3.16	> 3.16	> 3.16	> 3.16	> 3.16	–	–	–	–	–	–	–	–	–
–	–	Nc1nc2ccc(OC(F)(F)F)cc2s1 [Riluzole]	–	> 3.16	> 3.16	> 3.16	> 3.16	> 10	–	–	–	–	–	–	–	> 3.16
–	–	N[C@H](C(=O)O)[C@H](OCc1cccc(NC(=O)c2ccc(C(F)(F)F)cc2)c1)C(=O)O [TFB-TBOA]	–	> 3.16	> 3.16	> 3.16	> 3.16	> 10	–	–	–	–	–	–	–	> 3.16
–	–	NC(C(=O)O)C(OCc1ccccc1)C(=O)O (stereo not drawn) [Threo-beta-benzyloxyaspartic acid, Threo-beta-Benzyloxyaspartic acid]	–	> 3.16	> 3.16	> 3.16	> 3.16	> 10	–	–	–	–	–	–	–	> 3.16
–	–	Cc1ccsc1C(=CCCN1CCC[C@@H](C(=O)O)C1)c1sccc1C [Tiagabine]	–	> 3.16	> 3.16	> 3.16	> 3.16	> 10	–	–	–	–	–	–	–	> 3.16
–	–	COc1ccc(C2C(C#N)=C(N)OC3=C2C(=O)CC(c2cccc4ccccc24)C3)cc1 (centres unmarked) [UCPH-101]	–	> 3.16	> 3.16	> 3.16	> 3.16	> 10	–	–	–	–	–	–	–	> 3.16
–	–	CC1C(C#N)=C(N)OC2=C1C(=O)CC(c1cccc3ccccc13)C2 (centres unmarked) [UCPH-102]	–	> 3.16	> 3.16	> 3.16	> 3.16	> 10	–	–	–	–	–	–	–	> 3.16
–	–	Fc1ccc(C(OCCN2CCN(CCCc3ccccc3)CC2)c2ccc(F)cc2)cc1 [Vanoxerine (GBR12909), Vanoxerine]	–	> 3.16	> 3.16	> 3.16	> 3.16	–	–	–	–	–	–	–	–	> 3.16
–	1	N[C@@H](CC(=O)Nc1ccc(Oc2cc(F)c(F)cc2Br)cc1)C(=O)O [WAY-213613]	–	> 3.16	> 3.16	> 3.16	> 3.16	–	–	–	–	–	–	–	–	> 3.16

Reference: publication PMC11267547, “Advancing drug discovery through assay development: a survey of tool compounds within the human solute carrier superfamily” (Frontiers in Pharmacology, 2024)
